# Experimental data published in PMC11079024, “Identification of a family of species-selective complex I inhibitors as potential anthelmintics” (Nature Communications, 2024).
# Several values for one entry are separate records, joined by “and”; a condition that tells them apart may be missing. Equal values may be shown once. Read-outs that look alike come from different tables or passages of the source.
# Tests used:
# in vitro = details: human, HEK293 Cell Viability Assay LC50, 2 days exposure
# [1] = target: B. taurus (heart) complex I (Bos taurus, UniProt P03887+P17694+P42026); assay: biochemical; format: biochemical
# How it was run: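 Complex I activity followed as DCIP reduction (600 nm, 30 s reads, 15 min) with 80 μM NADH and 60 μM decylubiquinone in 25 mM KPi pH 7.5 containing 2 μM antimycin A and 2 mM KCN. Freeze-thawed mouse or bovine heart mitochondria at 0.2 mg/mL; initial-rate percent of solvent control, single-point 100 μM or dose-response.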
# [2] = test system: ben-1 mutant (ECA882) C. elegans; assay: microbe, parasite or virus in culture; details: for LC50: Caenorhabditis elegans; for C. elegans L1 relative development & viability: ECA882 deletion (ben-1); for C. elegans L1 relative development & viability (score 0-1 relative to DMSO controls): strain ECA882, deletion (ben-1)
# How it was run: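 L1 larvae (~2 worms/μL in M9) in liquid NGM with 2-fold concentrated E. coli HB101, compound at 1% DMSO, 6 days at 20 °C shaking 165 rpm. Well images scored as summed worm-associated pixels, normalized to DMSO controls; relative viability averaged over at least three biological replicates.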
# L1 wild-type C. elegans = details: […]; for KCN survival assay value relative to DMSO control, Mean: mean of replicates
# [3] = B. taurus, Mean of replicates, read-out: Complex I activity, dose-response data
# [4] = B. taurus, individual replicates (Rep), read-out: Complex I activity, dose-response data
# [5] = read-out: C. elegans ben-1 LC50
# [6] = read-out: C. elegans ben-1 log10 LC50 (converted)
# B. taurus (heart) complex I, sequence (P03887 whole entry): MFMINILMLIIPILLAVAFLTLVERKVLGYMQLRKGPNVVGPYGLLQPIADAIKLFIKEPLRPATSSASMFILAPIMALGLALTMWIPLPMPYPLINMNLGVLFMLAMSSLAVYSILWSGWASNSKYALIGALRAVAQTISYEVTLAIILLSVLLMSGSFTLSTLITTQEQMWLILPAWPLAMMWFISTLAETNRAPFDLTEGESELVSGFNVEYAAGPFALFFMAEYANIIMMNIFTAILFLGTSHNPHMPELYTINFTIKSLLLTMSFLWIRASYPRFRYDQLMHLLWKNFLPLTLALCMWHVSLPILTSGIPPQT
# B. taurus (heart) complex I, sequence (P17694 34-463): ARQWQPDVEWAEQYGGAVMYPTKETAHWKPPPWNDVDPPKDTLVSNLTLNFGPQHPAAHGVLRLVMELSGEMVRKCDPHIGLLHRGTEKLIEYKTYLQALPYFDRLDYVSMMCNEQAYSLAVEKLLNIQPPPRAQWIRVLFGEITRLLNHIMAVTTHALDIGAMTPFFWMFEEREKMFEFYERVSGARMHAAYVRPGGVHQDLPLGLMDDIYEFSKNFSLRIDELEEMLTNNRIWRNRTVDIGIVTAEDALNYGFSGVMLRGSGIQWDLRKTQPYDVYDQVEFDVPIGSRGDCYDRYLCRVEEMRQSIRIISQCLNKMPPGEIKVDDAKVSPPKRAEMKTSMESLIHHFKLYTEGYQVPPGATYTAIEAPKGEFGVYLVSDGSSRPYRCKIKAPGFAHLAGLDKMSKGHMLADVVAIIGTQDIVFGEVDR
# B. taurus (heart) complex I, sequence (P42026 38-216): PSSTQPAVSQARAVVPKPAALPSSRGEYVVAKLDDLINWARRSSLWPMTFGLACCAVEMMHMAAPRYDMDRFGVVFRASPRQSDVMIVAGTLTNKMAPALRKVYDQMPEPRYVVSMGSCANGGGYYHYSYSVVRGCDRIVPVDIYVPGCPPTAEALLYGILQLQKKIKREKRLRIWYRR
compound,measurement,setting,value
COc1cc2c(cc1OC)C(c1ccc(-c3ccc(Cl)c(Cl)c3)o1)=NCC2 [NPD3577],CC50 at 2 days,in vitro,21.4 µM
same,activity at 0.0001 µM,"[1]; B. taurus, dose 0.0001 µM, Mean of replicates, read-out: Complex I activity, dose-response data",105%
same,"Complex I activity, dose-response data","[1]; B. taurus, dose 0.0001 µM, individual replicates (Rep)",103.121 and 101.731 and 110.652
same,activity at 0.0001 µM,"[1]; B. taurus, dose 0.0001 µM, individual replicates (Rep), read-out: Complex I activity, dose-response data",106%
same,activity at 0.0005 µM,[1]; [3],100%
same,activity at 0.0005 µM,[1]; [4],100%
same,activity at 0.001 µM,"[1]; B. taurus, dose 0.001 µM, Mean of replicates, read-out: Complex I activity, dose-response data",106%
same,"Complex I activity, dose-response data","[1]; B. taurus, dose 0.001 µM, individual replicates (Rep)",115.208 and 104.399 and 94.945 and 110.770
same,activity at 0.0025 µM,"[1]; B. taurus, dose 0.0025 µM, Mean of replicates, read-out: Complex I activity, dose-response data",109%
same,"Complex I activity, dose-response data","[1]; B. taurus, dose 0.0025 µM, individual replicates (Rep)",105.176 and 104.207 and 109.459
same,activity at 0.0025 µM,"[1]; B. taurus, dose 0.0025 µM, individual replicates (Rep), read-out: Complex I activity, dose-response data",117%
same,activity at 0.005 µM,"[1]; B. taurus, dose 0.005 µM, Mean of replicates, read-out: Complex I activity, dose-response data",109%
same,"Complex I activity, dose-response data","[1]; B. taurus, dose 0.005 µM, individual replicates (Rep)",109.688 and 97.845 and 112.943
same,activity at 0.005 µM,"[1]; B. taurus, dose 0.005 µM, individual replicates (Rep), read-out: Complex I activity, dose-response data",116%
same,activity at 0.013 µM,"[1]; B. taurus, dose 0.013 µM, Mean of replicates, read-out: Complex I activity, dose-response data",106%
same,"Complex I activity, dose-response data","[1]; B. taurus, dose 0.013 µM, individual replicates (Rep)",116.009 and 85.825 and 105.823 and 114.478
same,activity at 0.025 µM,"[1]; B. taurus, dose 0.025 µM, Mean of replicates, read-out: Complex I activity, dose-response data",115%
same,"Complex I activity, dose-response data","[1]; B. taurus, dose 0.025 µM, individual replicates (Rep)",117.057 and 109.262 and 110.097
same,activity at 0.025 µM,"[1]; B. taurus, dose 0.025 µM, individual replicates (Rep), read-out: Complex I activity, dose-response data",124%
same,activity at 0.063 µM,"[1]; B. taurus, dose 0.063 µM, Mean of replicates, read-out: Complex I activity, dose-response data",111%
same,"Complex I activity, dose-response data","[1]; B. taurus, dose 0.063 µM, individual replicates (Rep)",116.393 and 107.485 and 112.565
same,activity at 0.063 µM,"[1]; B. taurus, dose 0.063 µM, individual replicates (Rep), read-out: Complex I activity, dose-response data",107%
same,activity at 0.125 µM,"[1]; B. taurus, dose 0.125 µM, Mean of replicates, read-out: Complex I activity, dose-response data",106%
same,"Complex I activity, dose-response data","[1]; B. taurus, dose 0.125 µM, individual replicates (Rep)",115.491 and 103.072 and 105.491
same,activity at 0.125 µM,"[1]; B. taurus, dose 0.125 µM, individual replicates (Rep), read-out: Complex I activity, dose-response data",100%
same,activity at 0.313 µM,"[1]; B. taurus, dose 0.313 µM, Mean of replicates, read-out: Complex I activity, dose-response data",109%
same,"Complex I activity, dose-response data","[1]; B. taurus, dose 0.313 µM, individual replicates (Rep)",109.249 and 104.276 and 103.070
same,activity at 0.313 µM,"[1]; B. taurus, dose 0.313 µM, individual replicates (Rep), read-out: Complex I activity, dose-response data",118%
same,activity at 0.625 µM,"[1]; B. taurus, dose 0.625 µM, Mean of replicates, read-out: Complex I activity, dose-response data",99%
same,"Complex I activity, dose-response data","[1]; B. taurus, dose 0.625 µM, individual replicates (Rep)",89.823 and 107.117 and 107.828
same,activity at 0.625 µM,"[1]; B. taurus, dose 0.625 µM, individual replicates (Rep), read-out: Complex I activity, dose-response data",91.2%
same,activity at 1.5 µM,[1]; [3],100%
same,activity at 1.5 µM,[1]; [4],100%
same,activity at 3 µM,"[1]; B. taurus, dose 3 µM, Mean of replicates, read-out: Complex I activity, dose-response data",95.5%
same,"Complex I activity, dose-response data","[1]; B. taurus, dose 3 µM, individual replicates (Rep)",93.418 and 99.797 and 99.095
same,activity at 3 µM,"[1]; B. taurus, dose 3 µM, individual replicates (Rep), read-out: Complex I activity, dose-response data",89.6%
same,activity at 15 µM,"[1]; B. taurus, dose 15 µM, Mean of replicates, read-out: Complex I activity, dose-response data",43.4%
same,"Complex I activity, dose-response data","[1]; B. taurus, dose 15 µM, individual replicates (Rep)",55.501 and 46.406 and 43.941 and 27.922
same,activity at 37.5 µM,"[1]; B. taurus, dose 37.5 µM, Mean of replicates, read-out: Complex I activity, dose-response data",26.1%
same,"Complex I activity, dose-response data","[1]; B. taurus, dose 37.5 µM, individual replicates (Rep)",16.844 and 31.768 and 25.172
same,activity at 37.5 µM,"[1]; B. taurus, dose 37.5 µM, individual replicates (Rep), read-out: Complex I activity, dose-response data",30.8%
same,activity at 75 µM,"[1]; B. taurus, dose 75 µM, Mean of replicates, read-out: Complex I activity, dose-response data",23.8%
same,"Complex I activity, dose-response data","[1]; B. taurus, dose 75 µM, individual replicates (Rep)",15.504 and 26.993 and 22.808
same,activity at 75 µM,"[1]; B. taurus, dose 75 µM, individual replicates (Rep), read-out: Complex I activity, dose-response data",30%
same,IC50,"[1]; heart mitochondria, read-out: B. taurus Complex I IC50",9.49 µM
c1ccc2[nH]c(-c3cscn3)nc2c1 [Thiabendazole],LC50,[2]; [5],375 µM
same,LC50,[2]; [6],375 µM
same,C. elegans L1 relative development & viability,"[2]; 1 µM, […]",0.926
same,C. elegans L1 relative development & viability,"[2]; 2 µM, […]",0.954
same,C. elegans L1 relative development & viability,"[2]; 3.9 µM, […]",0.969
same,C. elegans L1 relative development & viability,"[2]; 15.6 µM, score 0-1 relative to DMSO, values >1 set to 1",0.996
same,C. elegans L1 relative development & viability,"[2]; 31.3 µM, score 0-1 relative to DMSO, values >1 set to 1",1.000
same,C. elegans L1 relative development & viability,"[2]; 62.5 µM, score 0-1 relative to DMSO, values >1 set to 1",1.000
same,C. elegans L1 relative development & viability,"[2]; 125 µM, score 0-1 relative to DMSO, values >1 set to 1",1.000
same,C. elegans L1 relative development & viability,"[2]; 250 µM, […]",0.967
same,C. elegans L1 relative development & viability,"[2]; 500 µM, […]",0.155
same,"C. elegans L1 relative motility, 3-hour post 200 µM KCN dilution","L1 wild-type C. elegans; score 0-1 relative to DMSO, values >1 set to 1",1.000
"COC(=O)Nc1nc2ccc(Sc3ccccc3)cc2[nH]1 [fenbendazole, reference compound]",C. elegans L1 relative development & viability (score 0-1 relative to DMSO controls),[2]; 1 µM,1.000
same,C. elegans L1 relative development & viability (score 0-1 relative to DMSO controls),[2]; 2 µM,1.000
same,C. elegans L1 relative development & viability (score 0-1 relative to DMSO controls),[2]; 3.9 µM,1.000
same,C. elegans L1 relative development & viability (score 0-1 relative to DMSO controls),[2]; 15.6 µM,0.861
same,C. elegans L1 relative development & viability (score 0-1 relative to DMSO controls),[2]; 31.3 µM,0.962
same,C. elegans L1 relative development & viability (score 0-1 relative to DMSO controls),[2]; 62.5 µM,0.936
same,C. elegans L1 relative development & viability (score 0-1 relative to DMSO controls),[2]; 125 µM,0.785
same,C. elegans L1 relative development & viability (score 0-1 relative to DMSO controls),[2]; 250 µM,0.877
same,C. elegans L1 relative development & viability (score 0-1 relative to DMSO controls),[2]; 500 µM,0.667
same,LC50,[2]; [5],> 500 µM
same,LC50,[2]; [6],> 500 µM
same,C. elegans L1 relative development & viability,"[2]; 1 µM, score 0-1 relative to DMSO, values >1 set to 1",1.000
same,C. elegans L1 relative development & viability,"[2]; 2 µM, score 0-1 relative to DMSO, values >1 set to 1",1.000
same,C. elegans L1 relative development & viability,"[2]; 3.9 µM, score 0-1 relative to DMSO, values >1 set to 1",1.000
same,C. elegans L1 relative development & viability,"[2]; 15.6 µM, […]",0.861
same,C. elegans L1 relative development & viability,"[2]; 31.3 µM, […]",0.962
same,C. elegans L1 relative development & viability,"[2]; 62.5 µM, […]",0.936
same,C. elegans L1 relative development & viability,"[2]; 125 µM, […]",0.785
same,C. elegans L1 relative development & viability,"[2]; 250 µM, […]",0.877
same,C. elegans L1 relative development & viability,"[2]; 500 µM, […]",0.667
same,"KCN survival assay value relative to DMSO control, Mean",L1 wild-type C. elegans; dose 0.2 µM,1.025
same,"KCN survival assay value relative to DMSO control, Mean",L1 wild-type C. elegans; dose 0.4 µM,0.947
same,"KCN survival assay value relative to DMSO control, Mean",L1 wild-type C. elegans; dose 0.8 µM,0.953
same,"KCN survival assay value relative to DMSO control, Mean",L1 wild-type C. elegans; dose 3.1 µM,0.953
same,"KCN survival assay value relative to DMSO control, Mean",L1 wild-type C. elegans; dose 6.3 µM,0.899
same,"KCN survival assay value relative to DMSO control, Mean",L1 wild-type C. elegans; dose 12.5 µM,0.967
same,"KCN survival assay value relative to DMSO control, Mean",L1 wild-type C. elegans; dose 25 µM,0.933
same,"KCN survival assay value relative to DMSO control, Mean",L1 wild-type C. elegans; dose 50 µM,0.872
same,"KCN survival assay value relative to DMSO control, Mean",L1 wild-type C. elegans; dose 100 µM,0.880
